Experimental data from patent publication US6350476B1, “Herbal chinese joint complex” (Shanxi Zhengzhon Pharmaceutical Co., Ltd., priority 2000, dated 2002).

Tests used:
[1] = tested on: inflammation of primary arthritis caused by injection of Freund's complete adjuvant (rat hind paw); test: Animal Study 2: primary arthritis caused by Freund's complete adjuvant, treatment one week after injection; format: in vivo; details: rats
Procedure: (§1) The compositions used in these experiments were prepared by the Pharmaceutical Preparation Room of Taiyuan Rheumatoid Arthritis Hospital using the procedures outlined above. Distilled water was added to prepare a suspension of the density required for the tests.
(§2) Aspirin (99.6%) was manufactured by Nanjing Pharmacy. A 10% of gum acacia solution was added to prepare a suspension of the density required for the test.
(§3) Distilled water was used for the control groups.
Male rats were randomly divided into four groups of ten rats each, with the total weight of each group being 172.5±8.0 g. The perimeters of the left and right rat hind paws were measured. 0.1 ml of Freund's complete adjuvant was intradermally injected into each rat's right hind paw to induce inflammation. One week after injection of Freund's complete adjuvant, each group of rats was fed either water (control), aspirin (0.15 g/kg of body weight), or the composition disclosed in U.S. Pat. No. 5,908,628 (either 1.5 g or 3.0 g/kg of body weight) by means of gastrogavage. The hind paws were observed and measured 1, 4 and 7 days after receiving treatments of either water, aspirin or the composition disclosed in U.S. Pat. No. 5,908,628. Results of the treatments were determined by measuring the degree of swelling of the injected versus non-injected hind paws, changes in body weight, the number of tubercles, and an overall visual score of the difference between the injected and non-injected paws. The visual score included observations on erythema of the ears and the swelling of the hind paws, ankle joints, and paw joints.

[2] = tested on: inflammation of primary arthritis caused by injection of Freund's complete adjuvant (rat hind paw); test: Animal Study 1: primary arthritis caused by Freund's complete adjuvant, treatment before injection; format: in vivo; details: rats, 0.15 g/kg gastrogavage once a day for 3 days
Procedure: as §1, §2, §3
Male rats were randomly divided into four groups of ten rats each, with the total weight of each group being 172.5±8.0 g. The perimeters of the rat hind paws were measured. Each group of rats was fed either water (control), aspirin (0.15 g/kg of body weight), or the composition disclosed in U.S. Pat. No. 5,908,628 (either 1.5 g or 3.0 g/kg of body weight) by means of gastrogavage, once a day for 3 days. On the third day, 1 hour after the gastrogavage, 0.1 ml of Freund's complete adjuvant was intradermally injected into each rat's right hind paw to induce inflammation. The perimeters of the left and right hind paws were measured 2, 4, 6, 24, 48 and 72 hours after inflammation.

[3] = tested on: carrageenin-induced edematous footpad in mice; test: Animal Study 3: carrageenin-induced edematous footpad; format: in vivo; details: 0.15 g/kg gastrogavage once a day for 8 days
Procedure: as §1, §2, §3
This test was conducted according to the procedure established by Xu-Shu-Yun, Methodology of the Pharmacologic Experiments, The People's Public Health Publishing House, 717 (1991). Male mice were randomly assigned to one of four groups of ten mice each, each group weighing 22.5±2.1 g. Each group of mice was fed either water (control), aspirin (0.15 g/kg of body weight), or the composition disclosed in U.S. Pat. No. 5,908,628 (either 1.5 g or 3.0 g/kg of body weight) by means of gastrogavage, once a day for 8 days. On the eighth day, 1 hour after the gastrogavage, 0.1 ml of a 1.0% carrageenin solution was hypodermically injected into the right ankle joint. Using a volumometer, the volumes of the paw and ankle joints were measured 0.5, 1, 2, 3 and 4 hours after inflammation and the values were used to calculate a swelling value.

[4] = tested on: increased capillary permeability induced by I.P. 0.7 acetic acid in mice; test: Animal Study 5: capillary permeability induced by glacial acetic acid; format: in vivo; details: 0.15 g/kg gastrogavage, 20 minutes after injection
Procedure: as §1, §2, §3
This test was conducted according to the procedure established by Chen Qi, The People's Public Health House, 303 (1993). Mice were randomly assigned to one of 4 groups, each group having a total weight of 21.8±1.9 g and consisting of 5 male and 5 female mice each. Each group of mice was fed either water (control), aspirin (0.15 g/kg of body weight), or the composition disclosed in U.S. Pat. No. 5,908,628 (either 1.5 g or 3.0 g/kg of body weight) by means of gastrogavage. One hour after the gastrogavage, a solution consisting of 0.5% Evans blue and (I.P.) 0.7% glacial acetic acid 0.1 m/10 g (body weight) was hypodermically injected into the mice. I.P. densitometry values were collected 20 minutes after the injection.

[5] = tested on: fever caused by yeast injection; test: Animal Study 7: anti-pyretic action on pyrexial rat caused by injection of fresh yeast; format: in vivo; details: rats, 0.15 g/kg gastrogavage
Procedure: as §1, §2, §3
This test was conducted according to the procedure established by Chen Qi, The People's Public Health House, 271 (1993).
The rats were randomly divided into 4 groups, each group weighing 210.0±10.9 g and consisting of 5 male and 5 female rats each. Rats were maintained in the test environmental conditions for 3 days during which their anal temperatures were recorded twice daily. On the fourth day the anal temperature was measured every half hour. Next, a 15% solution of fresh yeast suspension (2 ml/100 g) was injected into the back of each rat. Anal temperature was measured 4 hours later. The rats whose temperatures rose above 1° C. were divided into 4 groups, each group consisting of 10 rats. Each group of rats was fed either water (control), aspirin (0.15 g/kg of body weight), or the composition disclosed in U.S. Pat. No. 5,908,628 (either 1.5 g or 3.0 g/kg of body weight) by means of gastrogavage. Anal temperatures were determined 1, 2, 3 and 4 hours after the gastrogavage.

[6] = tested on: writhing caused by injection of 0.5% acetic acid; test: Animal Study 8: writhing reaction caused by injection of 0.5% acetic acid; format: in vivo; details: mice, 0.2 g/kg gastrogavage
Procedure: as §1, §2, §3
This test measures the analgesic action of the composition disclosed in U.S. Pat. No. 5,908,628 on writhing caused by injection of 0.5% acetic acid according to the procedure established by Chen Qi. Methodology of Chinese Herbs Pharmacologic Research, The People's Public Health Publishing House, 378 (1993).
The mice are randomly divided into 4 groups, each of which consists of 10 male and 10 female mice, with the total weight of each group being 20.9±1.1 g. […] Pat. No. […] One hour after the gastrogavage, a solution of (I.P.) 0.5% acetic acid (0.2 ml/20 g) was injected into the mice. The number of writhing reactions was counted during the 30 minutes immediately following the injection.

[7] = tested on: hyperplasia of connective tissues (granulomatosis); test: Animal Study 6: granulomatosis induced by Cotton Pallet Method; format: in vivo; details: rats; 0.1 g/kg gastrogavage once daily for 8 days
Procedure: as §1, §2, §3
This test was conducted according to the procedure established by the Medication Dept. of the Public Health Ministry (Collection of Guiding Principles on Western Medicine's Pre-Clinical Research, 271 (1993)). Rats were randomly assigned to one of 4 groups, each group consisting of 8 rats with a total weight 157.8±9.0 g. The rats in each group were anesthetized, tiny incisions were cut on the left and right groins, and 10 mg of sterilized cotton was placed inside each cut. […] On the day following the last gastrogavage, the cotton and any granuloma deposits thereon were removed from the incisions, dried at a temperature of 60° C. for 12 hours, after which they were individually weighed. The weight of the granuloma deposits was calculated by subtracting […] (i.e., 10 mg). […] The Inhibitory Ratio is calculated as follows: […]

[8] = as little as; cited from earlier work

In the case of CC(=O)Oc1ccccc1C(=O)O [Aspirin, acetylsalicylic acid], the “No. of Tubercles” value ([1]; 0.15 g/kg) is reported as 1, the “Visual Score” value ([1]; 0.15 g/kg) is reported as 1 and the Swelling ([1]; 0.15 g/kg gastrogavage one week after adjuvant injection) is reported as 0.0 ± 0.57 mm. For the same compound, the “Swelling Measurement, 2 h” value ([2]; 2 h after inflammation) was 2.40 ± 1.08 mm, the “Swelling Measurement, 4 h” value ([2]; 4 h after inflammation) was 4.40 ± 1.57 mm and the “Swelling Measurement, 6 h” value ([2]; 6 h after inflammation) was 5.30 ± 1.34 mm. For the same compound, the “Swelling Measurement, 24 h” value ([2]; 24 h after inflammation) was 3.20 ± 0.92 mm, the “Swelling Measurement, 48 h” value ([2]; 48 h after inflammation) was 5.01 ± 1.92 mm and the “Swelling Measurement, 72 h” value ([2]; 72 h after inflammation) was 5.80 ± 1.75 mm. The “Degree of swelling of Hind Paw, 0.5 hr after injection” value ([3]; 0.5 hr) was 0.08 ± 0.03 mL, the “Degree of swelling of Hind Paw, 1 hr after injection” value ([3]; 1 hr) was 0.12 ± 0.03 mL and the “Degree of swelling of Hind Paw, 2 hr after injection” value ([3]; 2 hr) was 0.03 ± 0.02 mL. For the same compound, the “Degree of swelling of Hind Paw, 3 hr after injection” value ([3]; 3 hr) was 0.01 ± 0.01 mL, the “Degree of swelling of Hind Paw, 4 hr after injection” value ([3]; 4 hr) was 0.01 ± 0.0 mL and the “Evans blue (densitometry)” value [4] was 0.231 ± 0.07. The “Changes in Body Temperature after injection with yeast, 1 hr” value ([5]; 1 hr after the gastrogavage) was 37.9 ± 0.9 °C, the “Changes in Body Temperature after injection with yeast, 2 hr” value ([5]; 2 hr after the gastrogavage) was 37.6 ± 0.9 °C and the “Changes in Body Temperature after injection with yeast, 3 hr” value ([5]; 3 hr after the gastrogavage) was 37.8 ± 1.0 °C. The “Changes in Body Temperature after injection with yeast, 4 hr” value ([5]; 4 hr after the gastrogavage) was 38.3 ± 0.7 °C, the “Analgesic Rate (%)” value [6] was 63.31% and the “Writhing Quantity” value ([6]; 30 minutes following acetic acid injection) was 24.4 ± 10.0. For the same compound, the “Dry Weight of the granuloma” value [7] was 10.1 ± 1.6 mg/100 g and the Inhibitory rate % [7] was 17.89%.

For COc1cc2c(c(OC)c1OC)-c1ccc(OC)c(=O)cc1[C@@H](NC(C)=O)CC2 [colchicine], the “smallest amount found to be fatal” value [8] is listed as 7 mg.
